Data: patent publication US8691762B2, “Methods and assays for treating subjects with SHANK3 deletion, mutation or reduced expression” (Mount Sinai School of Medicine, priority 2010, dated 2014)
“Also recorded” adds a separate entry of the source.

Tests used:
Shank3 heterozygous mice [1] = assay: Long-term potentiation at Schaffer collateral-CA1 synapses, hippocampal slices from treated Shank3 heterozygous mice; assay type: in vivo, mouse; conditions: for LTP (normalized field EPSP slope), higher dose: rhIGF-1 i.p. 240 μg/kg/day for 2 weeks from P13-15
Procedure: FIG. 8. […] Ampakine CX1837 or HPCD vehicle is administered daily via i.p. injections (1.5 mg/kg body weight) starting at 2 weeks old and continued for 4 weeks for electrophysiological recordings.
(§1) FIG. 10A-10B. Recombinant human IGF-1 (rhIGF-1) reverses deficits in long-term potentiation and basal synaptic properties at Schaffer collateral-CA1 synapses in Shank3 heterozygous mice in a dose-dependent fashion. rhIGF-1 is administered daily via i.p. injections (120 or 240 μg/kg body weight) starting at P13-15 and continued for 2 weeks for electrophysiological recordings. A. LTP was induced with high-frequency stimulation and normalized field EPSP slope was plotted as a function of time. […] B. AMPA receptor responses were assessed in the mice. Slices were incubated in the presence of APV and mean field EPSP slope as a function of fiber volley is shown for slices derived from wildtype (WT), Shank3 heterozygous (Het) mice, and Het injected with rhIGF-1. Deficits in AMPA receptor signaling observed in Shank3 heterozygotes were reversed with 2-week rhIGF-1 treatment.

AMPA receptor = AMPA receptor component of I/O function (field EPSP slope vs fiber volley in presence of APV); assay type: in vivo, mouse; conditions: Shank3 Het
Procedure: as §1
IGF-1 has been approved for clinical use as a recombinant full-length protein. Full-length IGF-1 enters the CNS through an interaction with lipoprotein-related receptor 1 (LRP1), after activity dependent cleavage of IGF binding protein-3 (IGFBP-3) by matrix metalloproteinase-9 (MMP9) (Nishijima et al., 2010). […]

Akt = assay: Western blot for total- and phospho-Akt in hippocampus; assay type: in vivo, mouse
Text: FIG. 6. IGF1 treatment activates PI3K-Akt pathway in the hippocampus. PI3K binds to AMPARs and is required to maintain AMPAR surface expression during long-term potentiation.
It is interesting to note that IGF-1 activates the mTOR/Akt pathway as this has been implicated in other neurodevelopmental disorders (Veenstra-Vanderweele et al., 2012).

Shank3 heterozygous mice [2] = assay: Motor performance and learning, latency to fall off a rotating rod; assay type: in vivo, mouse; conditions: IGF-1 240 μg/kg/day for 2 weeks; male Shank3 Het vs vehicle
Procedure: FIG. 11. IGF-1 treatment reverses motor deficits in Shank3 heterozygous mice.
Phelan-McDermid syndrome frequently presents with hypotonia and at least transient motor deficits, and subtle motor deficits have been observed in Shank3-heterozygous mice (Bozdagi et al., 2010). To determine whether treatment with full-length IGF-1 may improve motor performance in Shank3-deficient mice, male heterozygous mice were treated with either vehicle or IGF-1 (240 μg/kg/day for 2 weeks).

Shank3 KO mice = conditions: (1-3)IGF-1 peptide, same protocol as heterozygotes, N=2
Procedure: Brief experimental procedures: Hippocampal slices (350 μm) are prepared from 1-3 month old Shank3 heterozygous, Shank3 knockout, and wildtype littermates, treated with (1-3) IGF-1 peptide, full-length IGF1, growth hormone, AMPAkine or saline or other appropriate control. Slices are perfused with Ringer's solution, bubbled with 95% O2/5% CO2, at 32° C., during extracellular recordings. Baseline of field excitatory postsynaptic potentials (fEPSPs) recorded from stratum radiatum in area CA1, evoked by stimulation of the Schaffer collateral-commissural afferents with bipolar tungsten electrodes placed into area CA3. Long-term potentiation (LTP) is induced either by a high-frequency stimulus (four trains of 100 Hz, 1 s stimulation separated by 5 min), or by theta-burst stimulation (TBS) (10 bursts of four pulses at 100 Hz separated by 200 ms), with a success rate >90% for control and genetically-modified animals with all stimulation protocols. To induce long-term depression (LTD), Schaffer collaterals were stimulated by a low frequency stimulus (900 pulses at 1 Hz for 15 min) or paired-pulse low frequency stimulus. LTD was induced with a success rate >90% for control animals. […]

Row | Substance | LTP (normalized field EPSP slope), lower dose (Shank3 heterozygous mice [1]; rhIGF-1 i.p. 120 μg/kg/day for 2 weeks, Shank3 Het) | LTP (normalized field EPSP slope), higher dose (Shank3 heterozygous mice [1]; Shank3 Het) | LTP (normalized field EPSP slope), higher dose (Shank3 heterozygous mice [1]; Shank3 Het, listed as rhIGF-1) | Mean slope of the I/O function (AMPA receptor component) (AMPA receptor; IGF-1 240 μg/kg/day i.p. 2 weeks, wildtype 0.625±0.08, untreated Het 0.31±0.045, p=0.004) | Deficits in AMPA receptor signaling (AMPA component of I/O function) (AMPA receptor; rhIGF-1 i.p. 240 μg/kg/day for 2 weeks, slices in APV) | phospho-Akt/Akt ratio (Akt; hippocampal lysates, Shank3 Het injected 2 weeks, n=10, vehicle 0.36±0.03 (n=8), 1-tailed p=0.040) | phosphorylation of Akt (pAkt1) (Akt; hippocampus, heterozygote mice, vs vehicle injected, n=3, P=0.0366) | Latency to fall off rotating rod / motor performance (Shank3 heterozygous mice [2]) | LTP (normalized field EPSP slope) (Shank3 heterozygous mice [1]; (1-3)IGF-1 i.p. 0.01 mg/g (10 μg/g/day) daily for 2 weeks from P13-15, Shank3 Het vs vehicle) | LTP (fEPSP versus time) (Shank3 KO mice)
1 | IGF-1: recombinant human IGF-1, a 7.6 kDa protein, SEQ ID NO:3 | not associated with significant reversal | effective in rescuing defective LTP | reversed by the higher | 0.618±0.075 | reversed | 0.55±0.04 | increase | significantly longer latencies; also recorded: Significant enhancement of motor performance |  | 
2 | glycine-proline-glutamic acid [(1-3)IGF-1] |  |  |  |  |  |  |  |  | reversed; also recorded: restored normal hippocampal LTP | reversed the impairment in LTP
